Experiment [1] relates to JB6 P+ cells. The experiment can be described thus: Anchorage-independent growth assay in soft agar (EGF-induced JB6 P+ colony formation). The experiment is classed as cell-based, mouse. On the procedure: Ten ng/mL EGF was used to promote the anchorage-independent growth of JB6 cells. […] Plates were incubated at 37°C, 5% CO2 for 14 days. Colonies with greater than ten cells were counted manually under a microscope. […] Normalization allowed for comparison of data over a range of JB6 P+ cell cultures, passages, and experimental time for the shRNA studies, as well as control for variation in the EGF response, and importantly allowed for a direct comparison to all concentration-response experiments including the toxicity assays. […] All group sizes were determined via previous studies to provide statistically meaningful data. In the soft agar assays, key results were repeated with different JB6 P+ cells to confirm the results. Similarly, the shRNA studies were conducted with three independent concentration-response curves with different JB6 P+ cell stocks. […] For two sample comparisons a t-test was utilized, and when comparing multiple samples a One-, Two-, or Three-Factor ANOVA followed by Tukey-Kramer post hoc test was utilized depending on the data. For all tests, statistical difference was donated when p < 0.05. […] The I[…]*PSD is expressed in x-axis units (log [M]) as is an IC50 and it represents the first concentration where it is expected to observe a statistical decrease in the measured signal. […] Using the formula provided by GraphPad Prism or a straight line for the point-to-point graphs, the X-axis value for point Y was determined. The error is ascribed to this measurement via adding and subtracting the pooled standard deviation (PSD) to/from point Y generating point Y ± PSD. The two new points were then transformed to the X-axis units as was done for point Y creating an asymmetric error in sigmoidal plots. When the error was asymmetric, the larger error value was chosen to err on the conservative side. See S1 Fig for a pictoral explination of the method. The data is presented as I[…]*PSD ± error.

The next experiment concerns A549, lung tumor, cells. The conditions noted are these: cited from earlier work.
Experiment [2] concerns JB6 P+ cells. The experiment is described as follows: Modified seven-day soft agar assay in shRNA lentivirus infected JB6 P+ cells. The experiment is classed as cell-based, mouse. The conditions noted are these: for IC50: Mus musculus. How it is done: Knockdown of the β2-AR via the Adrb2 shRNA lentivirus was examined via seeding 1x10^4 JB6 P+ cells/well of a 6-well plate in standard growth media (see above). 24 hr after seeding, the growth media was removed from attached cells and replaced with 2 ml EMEM containing 4% heat-inactivated FBS without antibiotics and […] polybrene. 1.5 ml lentiviral shRNA stocks of either Adrb2 or scrambled control were added to appropriate wells and plates were centrifuged at 1,000 g at room temperature for 1 hr. Following centrifugation, media was replaced with 3 ml EMEM lacking antibiotics and grown at 37°C. After 2, 3, 7, and 10 days of growth, cells were trypsinized, collected and centrifuged at 300g for 5 min. Cells were washed with 1 ml PBS, and RNA was extracted using Qiagen’s RNeasy Mini kit. RNA was reverse transcribed into cDNA using Applied Biosystems cDNA reverse transcription kit (Invitrogen) and stored at -20°C for future use.
β2-AR shRNA lentivirus infected JB6 P+ cells were utilized in modified anchorage-independent growth assays in soft agar. The procedure was shortened to seven days because the shRNA-mediated β2-AR knockdown persisted up to ten days. Infection of the cells occurred as described in the verification of effective shRNA-mediated β2-AR knockdown, and the cells were grown for three days, then they were added to the agar as described in the anchorage-independent growth assays in soft agar section. The colonies were counted after seven days in culture; thus, matching the ten days of β2-AR knockdown.

The structures appear in SMILES notation. Where “and” joins values, the source holds several entries; their conditions need not be identical. Equal entries are not always repeated.

Take `COc1ccccc1OCCNCC(O)COc1cccc2[nH]c3ccccc3c12` (stereo not shown) [Carvedilol]: in the experiment with JB6 P+ cells [1] (10 ng/mL EGF, 14 days, negative log value), the “Soft Agar Assay Log IC50” value is -6.61 ± 0.06 log [M]. For the same compound, the IC50 was 251 nM in the experiment on JB6 P+ cells [1] (Mus musculus, 336 h, 10 ng/mL EGF, 14 days, negative log value, read-out: Soft Agar Assay Log IC50 (converted)); 718 nM in the experiment on JB6 P+ cells [2] (168 h, independent experiments 1-3, seven days, read-out: ardb2 shRNA Mean logIC50 (converted)); 813 nM in the experiment on JB6 P+ cells [2] (168 h, scrambled control shRNA, three experiments combined (Fig 6B), seven days, read-out: LogIC50 (converted)); 1000 nM with JB6 P+ cells [2] (168 h, β2-AR-targeted shRNA, three experiments combined (Fig 6B), seven days, read-out: LogIC50 (converted)); 714 nM in the experiment on JB6 P+ cells [2] (line Mean, read-out: Scrambled shRNA Mean logIC50, mean of three experiments (converted)); 979 nM in the experiment with JB6 P+ cells [2] (line Mean, read-out: ardb2 shRNA Mean logIC50, mean of three experiments (converted)). Moreover, the Emax in the experiment with JB6 P+ cells [1] (Mus musculus, efficacy of inhibition of colony formation, reported if non-toxic) was 94.7 ± 4.31%. For the same compound, the “reducing the growth of injected A549 cells in vivo, words” value in the experiment on A549, lung tumor, cells is “not effective”. Moreover, in the experiment with JB6 P+ cells [2] (independent experiments 1-3, seven days), the “ardb2 shRNA Mean logIC50” value was -5.965 log [M] and -5.917 log [M].

The values above are taken from article PMC6527222 (PLoS ONE, 2019).
